Source: patent US11236087B2, “Highly active pyrazolo-piperidine substituted indole-2-carboxamides active against the hepatitis B virus (HBV)” (AiCuris GmbH & Co. KG, priority 2017, dated 2022)

Experiments:
HBV = assay: Determination of HBV DNA from the supernatants of HepAD38 cells (anti-HBV activity); format: cell-based, hepatitis B virus; settings: Hepatitis B virus, 144 h; HBV DNA in HepAD38 supernatant, day 6, qPCR; read-out: Cell Activity (EC50)
Procedure, shortened: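 HepAD38 cells, tetracycline withdrawn to induce HBV, treated with serial half-log compound dilutions; on day 6 HBV DNA purified from filtered supernatant and quantified by real-time PCR against HBV plasmid standards; EC50 from relative copy numbers by non-linear regression, three experiments in triplicate.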

[1] = Cell viability assay (AlamarBlue) in HepAD38 cells; settings: human
HBV core protein = molecular target: T1, HBV core protein (UniProt P03146); assay: Biochemical capsid assembly assay (fluorescence quenching); design: species or system hepatitis B virus; settings: read-out: Assembly Activity (IC50); BODIPY-FL labelled core protein, 300 μM NaCl, read 6 min after start
T1 construct: fused on or other part: BODIPY-FL maleimide label on the C-terminal Cys150
Procedure, shortened: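 Purified E. coli-expressed HBV core protein (aa 1-149 plus Cys150), BODIPY-FL maleimide-labelled, at 1.0-2.0 μM in 50 mM HEPES pH 7.5 with 0.5% DMSO was used. Compounds were tested at 8 concentrations (0.5-log dilutions from 100, 31.6 or 10 μM). Assembly was started with NaCl ([…]), and fluorescence quenching was read after 6 min (ex 477/em 525 nm). EC50 was determined by non-linear regression.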

T1 sequence (P03146 whole entry, looked up, the tested form may be a part): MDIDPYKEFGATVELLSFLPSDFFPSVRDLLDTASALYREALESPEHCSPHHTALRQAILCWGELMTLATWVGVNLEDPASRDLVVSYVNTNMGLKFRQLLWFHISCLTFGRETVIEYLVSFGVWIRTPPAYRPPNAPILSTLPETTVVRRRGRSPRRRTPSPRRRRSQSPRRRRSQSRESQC

CS(=O)(=O)Nc1n[nH]c2c1CN(C(=O)c1cc3ccccc3[nH]1)CC2 [Example 82, N-[5-(1H-indole-2-carbonyl)-1H,4H,5H,6H,7H-pyrazolo[4,3-c]pyridin-3-yl]methanesulfonamide]
EC50 (HBV): < 100 µM
CC50 at 6 days [1]: > 100 µM
IC50 (HBV core protein): < 100 µM

CN(CC1CCOCC1)C(=O)c1n[nH]c2c1CN(C(=O)c1cc3ccccc3[nH]1)CC2 [Example 85, 5-(1H-indole-2-carbonyl)-N-methyl-N-[(oxan-4-yl)methyl]-1H,4H,5H,6H,7H-pyrazolo[4,3-c]pyridine-3-carboxamide]
EC50 (HBV): 1 to 25 µM
CC50 at 6 days [1]: > 100 µM
IC50 (HBV core protein): < 100 µM

O=C(c1cc2ccccc2[nH]1)N1CCc2[nH]nc(NCc3ccccc3)c2C1 [Example 91, N-benzyl-5-(1H-indole-2-carbonyl)-1H,4H,5H,6H,7H-pyrazolo[4,3-c]pyridin-3-amine]
EC50 (HBV): 1 to 25 µM
CC50 at 6 days [1]: > 100 µM
IC50 (HBV core protein): 5 to 10 µM

CN(CC1CCOC1)C(=O)c1n[nH]c2c1CN(C(=O)c1cc3ccccc3[nH]1)CC2 (stereo not drawn) [Example 95, 5-(1H-indole-2-carbonyl)-N-methyl-N-[(oxolan-3-yl)methyl]-1H,4H,5H,6H,7H-pyrazolo[4,3-c]pyridine-3-carboxamide]
EC50 (HBV): 1 to 25 µM
CC50 at 6 days [1]: > 100 µM
IC50 (HBV core protein): < 100 µM

O=C(NCC1CCOC1)c1n[nH]c2c1CN(C(=O)c1cc3ccccc3[nH]1)CC2 (stereo not drawn) [Example 96, 5-(1H-indole-2-carbonyl)-N-[(oxolan-3-yl)methyl]-1H,4H,5H,6H,7H-pyrazolo[4,3-c]pyridine-3-carboxamide]
EC50 (HBV): 1 to 25 µM
CC50 at 6 days [1]: > 100 µM
IC50 (HBV core protein): < 100 µM

CN(CC1CCCO1)C(=O)c1n[nH]c2c1CN(C(=O)c1cc3ccccc3[nH]1)CC2 (stereo not drawn) [Example 97, 5-(1H-indole-2-carbonyl)-N-methyl-N-[(oxolan-2-yl)methyl]-1H,4H,5H,6H,7H-pyrazolo[4,3-c]pyridine-3-carboxamide]
EC50 (HBV): < 1 µM
CC50 at 6 days [1]: > 100 µM
IC50 (HBV core protein): 5 to 10 µM

CN1CCN(C(=O)c2n[nH]c3c2CN(C(=O)c2cc4ccccc4[nH]2)CC3)CC1 [Example 98, 2-[3-(4-methylpiperazine-1-carbonyl)-1H,4H,5H,6H,7H-pyrazolo[4,3-c]pyridine-5-carbonyl]-1H-indole]
EC50 (HBV): 1 to 25 µM
CC50 at 6 days [1]: > 32 µM
IC50 (HBV core protein): < 100 µM

O=C(c1cc2ccccc2[nH]1)N1CCc2[nH]nc(C(=O)N3CCCC3)c2C1 [Example 99, 2-[3-(pyrrolidine-1-carbonyl)-1H,4H,5H,6H,7H-pyrazolo[4,3-c]pyridine-5-carbonyl]-1H-indole]
EC50 (HBV): 1 to 25 µM
CC50 at 6 days [1]: > 100 µM
IC50 (HBV core protein): 5 to 10 µM

CN(CCO)C(=O)c1n[nH]c2c1CN(C(=O)c1cc3ccccc3[nH]1)CC2 [Example 100, N-(2-hydroxyethyl)-5-(1H-indole-2-carbonyl)-N-methyl-1H,4H,5H,6H,7H-pyrazolo[4,3-c]pyridine-3-carboxamide]
EC50 (HBV): < 1 µM
CC50 at 6 days [1]: > 100 µM
IC50 (HBV core protein): < 5 µM

CS(=O)(=O)CCNC(=O)c1n[nH]c2c1CN(C(=O)c1cc3ccccc3[nH]1)CC2 [Example 101, 5-(1H-indole-2-carbonyl)-N-(2-methanesulfonylethyl)-1H,4H,5H,6H7H-pyrazolo[4,3-c]pyridine-3-carboxamide]
EC50 (HBV): < 100 µM
CC50 at 6 days [1]: > 100 µM
IC50 (HBV core protein): < 100 µM

CN(CCCO)C(=O)c1n[nH]c2c1CN(C(=O)c1cc3ccccc3[nH]1)CC2 [Example 102, N-(3-hydroxypropyl)-5-(1H-indole-2-carbonyl)-N-methyl-1H,4H,5H,6H,7H-pyrazolo[4,3-c]pyridine-3-carboxamide]
EC50 (HBV): < 1 µM
CC50 at 6 days [1]: > 100 µM
IC50 (HBV core protein): < 5 µM

CCN(C)C(=O)c1n[nH]c2c1CN(C(=O)c1cc3ccccc3[nH]1)CC2 [Example 103, N-ethyl-5-(1H-indole-2-carbonyl)-N-methyl-1H,4H,5H,6H,7H-pyrazolo[4,3-c]pyridine-3-carboxamide]
EC50 (HBV): < 1 µM
CC50 at 6 days [1]: > 100 µM
IC50 (HBV core protein): < 5 µM

COCCNC(=O)c1n[nH]c2c1CN(C(=O)c1cc3ccccc3[nH]1)CC2 [Example 104, 5-(1H-indole-2-carbonyl)-N-(2-methoxyethyl)-1H,4H,5H,6H,7H-pyrazolo[4,3-c]pyridine-3-carboxamide]
EC50 (HBV): 1 to 25 µM
CC50 at 6 days [1]: > 100 µM
IC50 (HBV core protein): < 100 µM

O=C(NCCCO)c1n[nH]c2c1CN(C(=O)c1cc3ccccc3[nH]1)CC2 [Example 105, N-(3-hydroxypropyl)-5-(1H-indole-2-carbonyl)-1H,4H,5H,6H,7H-pyrazolo[4,3-c]pyridine-3-carboxamide]
EC50 (HBV): 1 to 25 µM
CC50 at 6 days [1]: > 100 µM
IC50 (HBV core protein): < 100 µM

NC(=O)c1n[nH]c2c1CN(C(=O)c1cc3ccccc3[nH]1)CC2 [Example 106, 5-(1H-indole-2-carbonyl)-1H,4H,5H,6H,7H-pyrazolo[4,3-c]pyridine-3-carboxamide]
EC50 (HBV): < 100 µM
CC50 at 6 days [1]: > 100 µM
IC50 (HBV core protein): < 100 µM

O=C(NCCO)c1n[nH]c2c1CN(C(=O)c1cc3ccccc3[nH]1)CC2 [Example 107, N-(2-hydroxyethyl)-5-(1H-indole-2-carbonyl)-1H,4H,5H,6H,7H-pyrazolo[4,3-c]pyridine-3-carboxamide]
EC50 (HBV): 1 to 25 µM
CC50 at 6 days [1]: > 100 µM
IC50 (HBV core protein): < 100 µM

O=C(c1cc2ccccc2[nH]1)N1CCc2[nH]nc(C(=O)N3CCOCC3)c2C1 [Example 108, 2-[3-(morpholine-4-carbonyl)-1H,4H,5H,6H,7H-pyrazolo[4,3-c]pyridine-5-carbonyl]-1H-indole]
EC50 (HBV): 1 to 25 µM
CC50 at 6 days [1]: > 100 µM
IC50 (HBV core protein): < 100 µM

CCNC(=O)c1n[nH]c2c1CN(C(=O)c1cc3ccccc3[nH]1)CC2 [Example 109, N-ethyl-5-(1H-indole-2-carbonyl)-1H,4H,5H,6H,7H-pyrazolo[4,3-c]pyridine-3-carboxamide]
EC50 (HBV): 1 to 25 µM
CC50 at 6 days [1]: > 100 µM
IC50 (HBV core protein): 5 to 10 µM

O=C(c1cc2ccccc2[nH]1)N1CCc2[nH]nc(C(=O)N3CCCCC3)c2C1 [Example 112, 2-[3-(piperidine-1-carbonyl)-1H,4H,5H,6H,7H-pyrazolo[4,3-c]pyridine-5-carbonyl]-1H-indole]
EC50 (HBV): < 1 µM
CC50 at 6 days [1]: > 32 µM
IC50 (HBV core protein): < 5 µM

CON(C)C(=O)c1n[nH]c2c1CN(C(=O)c1cc3c(Cl)cccc3[nH]1)CC2 [Example 113, 5-(4-chloro-1H-indole-2-carbonyl)-N-methoxy-N-methyl-1H,4H,5H,6H,7H-pyrazolo[4,3-c]pyridine-3-carboxamide]
EC50 (HBV): < 1 µM
CC50 at 6 days [1]: > 100 µM
IC50 (HBV core protein): < 5 µM

O=C(c1cc2c(F)cccc2[nH]1)N1CCc2[nH]ncc2C1 [Example 114, 4-fluoro-2-{1H,4H,5H,6H,7H-pyrazolo[4,3-c]pyridine-5-carbonyl}-1H-indole]
EC50 (HBV): < 1 µM
CC50 at 6 days [1]: > 100 µM
IC50 (HBV core protein): < 5 µM

Nc1n[nH]c2c1CN(C(=O)c1cc3ccccc3[nH]1)CC2 [Example 115, 5-(1H-indole-2-carbonyl)-1H,4H,5H,6H,7H-pyrazolo[4,3-c]pyridin-3-amine]
EC50 (HBV): 1 to 25 µM
CC50 at 6 days [1]: > 100 µM
IC50 (HBV core protein): 5 to 10 µM

Cc1noc(-c2n[nH]c3c2CN(C(=O)c2cc4ccccc4[nH]2)CC3)n1 [Example 116, 2-[3-(3-methyl-1,2,4-oxadiazol-5-yl)-1H,4H,5H,6H,7H-pyrazolo[4,3-c]pyridine-5-carbonyl]-1H-indole]
EC50 (HBV): < 100 µM
CC50 at 6 days [1]: > 100 µM
IC50 (HBV core protein): 5 to 10 µM

O=C(c1cc2c(F)cc(F)cc2[nH]1)N1C2CCC1c1cn[nH]c1C2 (stereo not drawn) [Example 117, 11-(4,6-difluoro-1H-indole-2-carbonyl)-4,5,11-triazatricyclo[6.2.1.0^2,6]undeca-2(6),3-diene]
EC50 (HBV): < 100 µM
CC50 at 6 days [1]: > 100 µM
IC50 (HBV core protein): < 100 µM

O=C(c1cc2ccccc2[nH]1)N1CCc2[nH]nc(CO)c2C1 [Example 118, [5-(1H-indole-2-carbonyl)-1H,4H,5H,6H,7H-pyrazolo[4,3-c]pyridin-3-yl]methanol]
EC50 (HBV): 1 to 25 µM
CC50 at 6 days [1]: > 100 µM
IC50 (HBV core protein): 5 to 10 µM

O=C(c1cc2ccc(Br)cc2[nH]1)N1CCc2[nH]ncc2C1 [Example 119, 6-bromo-2-{1H,4H,5H,6H,7H-pyrazolo[4,3-c]pyridine-5-carbonyl}-1H-indole]
EC50 (HBV): < 1 µM
CC50 at 6 days [1]: > 100 µM
IC50 (HBV core protein): < 5 µM

O=C(c1cc2cccc(Cl)c2[nH]1)N1CCc2[nH]ncc2C1 [Example 120, 7-chloro-2-{1H,4H,5H,6H,7H-pyrazolo[4,3-c]pyridine-5-carbonyl}-1H-indole]
EC50 (HBV): < 1 µM
CC50 at 6 days [1]: > 100 µM
IC50 (HBV core protein): 5 to 10 µM

O=C(c1cc2cc(Cl)ccc2[nH]1)N1CCc2[nH]ncc2C1 [Example 122, 5-chloro-2-{1H,4H,5H,6H,7H-pyrazolo[4,3-c]pyridine-5-carbonyl}-1H-indole]
EC50 (HBV): 1 to 25 µM
CC50 at 6 days [1]: > 100 µM
IC50 (HBV core protein): < 100 µM

O=C(c1cc2ccccc2[nH]1)N1CCc2[nH]nc(C(=O)N3CCCN3)c2C1 [Example 124, 2-[3-(pyrazolidine-1-carbonyl)-1H,4H,5H,6H,7H-pyrazolo[4,3-c]pyridine-5-carbonyl]-1H-indole]
EC50 (HBV): < 1 µM
CC50 at 6 days [1]: > 32 µM
IC50 (HBV core protein): < 5 µM
